Data set [1] has as its system Mus musculus. The data set is described as follows: Antiinflammatory activity against TPA-induced ear edema in BALB/c mouse assessed as effect on weight of ear punches at 100 mg/kg, po administered 6 mins prior to TPA challenge and treated twice in 4 hrs and measured after 6 hrs post administration (reference value: 4.5 +/- 0.18 mg). In kind it is functional.
Data set [2] deals with Mus musculus. The data set is described as follows: Antiinflammatory activity against TPA-induced ear edema in BALB/c mouse assessed as inhibition of ear edema at 50 mg/kg, po administered 6 mins prior to TPA challenge and treated twice in 4 hrs and measured after 6 hrs post administration relative to control. In kind it is functional.
For data set [3], the system named is Mus musculus. The data set is described as follows: Antiinflammatory activity against TPA-induced ear edema in BALB/c mouse assessed as inhibition of ear edema at 100 mg/kg, po administered 6 mins prior to TPA challenge and treated twice in 4 hrs and measured after 6 hrs post administration relative to control. Format: functional.
Data set [4] is described as follows: Tmax in rat at 10 to 480 mg/kg, po. In kind it is ADME, organism-based. Particulars: in vivo.

What is called inhibition in vivo is the change of the read-out against control, counted positive when it falls. For orientation: Tmax means the time at which the peak concentration occurs.

Turning to `CC(=O)Oc1ccccc1C(=O)O` [ASPIRIN], the Activity in data set [1] turned out to be 11.2 mg. Same read-out and setting: then `CCc1cccc2c3c([nH]c12)C(CC)(CC(=O)O)OCC3` (stereo not given) [ETODOLAC], with 11.1 mg.

As for `CC1(C)[C@@H](O[C@H]2O[C@H](C(=O)O)[C@@H](O)[C@H](O)[C@H]2O[C@@H]2O[C@H](C(=O)O)[C@@H](O)[C@H](O)[C@H]2O)CC[C@]2(C)[C@H]3C(=O)C=C4[C@@H]5C[C@@](C)(C(=O)O)CC[C@]5(C)CC[C@@]4(C)[C@]3(C)CC[C@@H]12` [GLYCYRRHIZIN], the Activity in data set [1] is given as 12.7 mg. In addition, in data set [2], the inhibition in vivo at 50 mg/kg was -5.41%. Also, the inhibition in vivo at 100 mg/kg in data set [3] is -10.8%.

Consider `CC(C)Cc1ccc(C(C)C(=O)O)cc1` (stereo not given) [IBUPROFEN], for which, in data set [1], the Activity is reported as 8.8 mg. Regarding `COc1ccc2cc([C@H](C)C(=O)O)ccc2c1` [NAPROXEN], in data set [1], the Activity stood at 11.5 mg. With `Cc1c(Cl)cccc1Nc1ccccc1C(=O)O` [TOLFENAMIC ACID], the time of peak concentration (Tmax) in data set [4] was 2 to 3 h. Moreover, the inhibition in vivo at 50 mg/kg in data set [2] worked out at 35.1%. For the same compound, the inhibition in vivo at 100 mg/kg in data set [3] came out at 51.4%.

The values are drawn from ChEMBL document CHEMBL4373682, “Synergistic effect of tolfenamic acid and glycyrrhizic acid on TPA-induced skin inflammation in mice” (Medchemcomm, 2019).
